Assay results from PubChem BioAssay (NCI).
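Results reflect a 48-hour exposure of cells in 96-well plates to compound at five concentrations. The concentration for full growth arrest is given as TGI.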

How the values were obtained:
Assay in all cases: NCI anticancer screen, dose series, 48 h
[1] = system: 786-0 renal
[2] = system: A498 renal
[3] = system: A549 NSCLC
[4] = system: ACHN renal
[5] = system: BT-549 breast
[6] = system: CAKI-1 renal
[7] = system: COLO 205 colon
[8] = system: DU-145 prostate
[9] = system: EKVX NSCLC
[10] = system: HCT-116 colon
[11] = system: HCT-15 colon
[12] = system: HOP-62 NSCLC
[13] = system: HOP-92 NSCLC
[14] = system: HS 578T breast
[15] = system: HT29 colon
[16] = system: IGROV1 ovarian
[17] = system: K-562 leukemia
[18] = system: KM12 colon
[19] = system: LOX IMVI melanoma
[20] = system: M14 melanoma
[21] = system: MALME-3M melanoma
[22] = system: MCF7 breast
[23] = system: MDA-MB-231 breast
[24] = system: MDA-MB-435
[25] = system: MDA-N
[26] = system: MOLT-4 leukemia
[27] = system: NCI-H226 lung
[28] = system: NCI-H460 lung
[29] = system: NCI-H522 lung
[30] = system: NCI/ADR-RES ovarian
[31] = system: OVCAR-3 ovarian
[32] = system: OVCAR-4 ovarian
[33] = system: OVCAR-5 ovarian
[34] = system: OVCAR-8 ovarian
[35] = system: PC-3 prostate
[36] = system: RPMI-8226 leukemia
[37] = system: RXF 393 renal
[38] = system: SF-268 CNS
[39] = system: SF-295 CNS
[40] = system: SK-MEL-2 melanoma
[41] = system: SK-MEL-28 melanoma
[42] = system: SK-MEL-5 melanoma
[43] = system: SN12C renal
[44] = system: SNB-19 CNS
[45] = system: SNB-75 CNS
[46] = system: SR leukemia
[47] = system: T-47D breast
[48] = system: TK-10 renal
[49] = system: U251 CNS
[50] = system: UACC-257 melanoma
[51] = system: UACC-62 melanoma
[52] = system: UO-31 renal
[53] = system: CCRF-CEM leukemia
[54] = system: HCC-2998 colon
[55] = system: HL-60(TB) leukemia
[56] = system: NCI-H23 lung
[57] = system: SF-539 CNS
[58] = system: SK-OV-3 ovarian
[59] = system: SW-620 colon

Compound: NCCCN1CCN(c2ccccc2)CC1
- TGI [1]: > 100 µM
- TGI [2]: > 100 µM
- TGI [3]: > 100 µM
- TGI [4]: > 100 µM
- TGI [5]: > 100 µM
- TGI [6]: > 100 µM
- TGI [7]: > 100 µM
- TGI [8]: > 100 µM
- TGI [9]: > 100 µM
- TGI [10]: > 100 µM
- TGI [11]: > 100 µM
- TGI [12]: > 100 µM
- TGI [13]: > 100 µM
- TGI [14]: > 100 µM
- TGI [15]: > 100 µM
- TGI [16]: > 100 µM
- TGI [17]: > 100 µM
- TGI [18]: > 100 µM
- TGI [19]: > 100 µM
- TGI [20]: > 100 µM
- TGI [21]: > 100 µM
- TGI [22]: > 100 µM
- TGI [23]: > 100 µM
- TGI [24]: > 100 µM
- TGI [25]: > 100 µM
- TGI [26]: > 100 µM
- TGI [27]: > 100 µM
- TGI [28]: > 100 µM
- TGI [29]: > 100 µM
- TGI [30]: > 100 µM
- TGI [31]: 87.7 µM
- TGI [32]: > 100 µM
- TGI [33]: > 100 µM
- TGI [34]: > 100 µM
- TGI [35]: > 100 µM
- TGI [36]: > 100 µM
- TGI [37]: > 100 µM
- TGI [38]: > 100 µM
- TGI [39]: > 100 µM
- TGI [40]: > 100 µM
- TGI [41]: > 100 µM
- TGI [42]: > 100 µM
- TGI [43]: > 100 µM
- TGI [44]: > 100 µM
- TGI [45]: > 100 µM
- TGI [46]: > 100 µM
- TGI [47]: > 100 µM
- TGI [48]: > 100 µM
- TGI [49]: > 100 µM
- TGI [50]: > 100 µM
- TGI [51]: > 100 µM
- TGI [52]: > 100 µM

Compound: CC(=O)N1C(Nc2cnc3ccccc3c2)CCN1c1ccccc1 (configuration not stated)
- TGI [1]: > 10 µM
- TGI [3]: > 10 µM
- TGI [4]: > 10 µM
- TGI [5]: > 10 µM
- TGI [6]: > 10 µM
- TGI [53]: > 10 µM
- TGI [7]: > 10 µM
- TGI [8]: > 10 µM
- TGI [9]: > 10 µM
- TGI [54]: > 10 µM
- TGI [10]: > 10 µM
- TGI [11]: > 10 µM
- TGI [55]: > 10 µM
- TGI [12]: > 10 µM
- TGI [14]: > 10 µM
- TGI [15]: > 10 µM
- TGI [16]: > 10 µM
- TGI [17]: > 10 µM
- TGI [19]: > 10 µM
- TGI [20]: > 10 µM
- TGI [21]: > 10 µM
- TGI [22]: > 10 µM
- TGI [23]: > 10 µM
- TGI [24]: > 10 µM
- TGI [25]: > 10 µM
- TGI [26]: > 10 µM
- TGI [27]: > 10 µM
- TGI [56]: > 10 µM
- TGI [28]: > 10 µM
- TGI [29]: > 10 µM
- TGI [30]: > 10 µM
- TGI [31]: > 10 µM
- TGI [32]: > 10 µM
- TGI [33]: > 10 µM
- TGI [34]: > 10 µM
- TGI [35]: > 10 µM
- TGI [36]: > 10 µM
- TGI [37]: > 10 µM
- TGI [38]: > 10 µM
- TGI [39]: > 10 µM
- TGI [57]: > 10 µM
- TGI [40]: > 10 µM
- TGI [41]: > 10 µM
- TGI [42]: > 10 µM
- TGI [58]: > 10 µM
- TGI [43]: > 10 µM
- TGI [44]: > 10 µM
- TGI [45]: > 10 µM
- TGI [46]: > 10 µM
- TGI [59]: > 10 µM
- TGI [47]: > 10 µM
- TGI [48]: > 10 µM
- TGI [50]: > 10 µM
- TGI [52]: > 10 µM

Compound: CC(=O)OC1CCC2(C)C(CCC3C4CC=C(C5(C)OCCO5)C4(C)CCC32)C1 (configuration not stated)
- TGI [1]: 77.4 µM
- TGI [2]: 61.8 µM
- TGI [3]: > 100 µM
- TGI [4]: > 100 µM
- TGI [5]: 45.8 µM
- TGI [6]: > 100 µM
- TGI [53]: 38.4 µM
- TGI [7]: 32.9 µM
- TGI [8]: > 100 µM
- TGI [9]: 44.1 µM
- TGI [10]: 45.3 µM
- TGI [11]: 80.6 µM
- TGI [55]: 48.8 µM
- TGI [12]: 44.1 µM
- TGI [14]: 60.1 µM
- TGI [15]: 38.3 µM
- TGI [16]: 70.4 µM
- TGI [17]: > 100 µM
- TGI [18]: 67.4 µM
- TGI [19]: 32.8 µM
- TGI [20]: 52.8 µM
- TGI [21]: 53.4 µM
- TGI [22]: 53.9 µM
- TGI [23]: > 100 µM
- TGI [24]: 47.9 µM
- TGI [25]: 44 µM
- TGI [26]: 65.5 µM
- TGI [27]: 66.8 µM
- TGI [56]: 66.6 µM
- TGI [28]: 47.8 µM
- TGI [30]: 46 µM
- TGI [31]: 44 µM
- TGI [32]: 61 µM
- TGI [33]: 44.7 µM
- TGI [34]: 48.8 µM
- TGI [35]: 54.2 µM
- TGI [36]: 34.1 µM
- TGI [37]: 40.3 µM
- TGI [38]: > 100 µM
- TGI [39]: 57.2 µM
- TGI [57]: 42.7 µM
- TGI [40]: 37.4 µM
- TGI [41]: 43 µM
- TGI [42]: 28.9 µM
- TGI [58]: > 100 µM
- TGI [43]: 44.4 µM
- TGI [44]: > 100 µM
- TGI [45]: 73.7 µM
- TGI [46]: 54.2 µM
- TGI [59]: 45.6 µM
- TGI [47]: > 100 µM
- TGI [48]: > 100 µM
- TGI [49]: 39.4 µM
- TGI [50]: 40.2 µM
- TGI [51]: 53.1 µM
- TGI [52]: 62 µM
